Assay results as given in article PMC5122387 (2016).

Experiments:
Assay in all cases: Dox fluorescence quenching
[1] = system: MUC1 aptamer (Apt) (DNA, aptamer) GCAGTTGATCCTTTGGATACCCTGG; conditions: not stated; 3 nM Dox; complete quenching at DNA:Dox molar ratio 1; buffer not stated
[2] = system: DNA tetrahedron (Td) (DNA, other) ACATTCCTAAGTCTGAAACATTACAGCTTGCTACACGAGAAGAGCCGCCATAGTA/TATCACCAGGCAGTTGACAGTGTAGCAAGCTGTAATAGATGCGAGGGTCCAATAC/TCAACTGCCTGGTGATAAAACGACACTACGTGGGAATCTACTATGGCGGCTCTTC/TTCAGACTTAGGAATGTGCTTCCCACGTAGTGTCGTTTGTATTGGACCCTCGCAT; conditions: not stated for assay; assembled in 50 mM MgCl2; 3 nM Dox; complete quenching at DNA:Dox molar ratio 0.05; Td assembled in 20 mM Tris-HCl, pH 8.0
[3] = system: Apt-Td (aptamer-tetrahedron complex) (DNA, other) AGGAAGAGAGAAGGAAGGGAATTTTTACATTCCTAAGTCTGAAACATTACAGCTTGCTACACGAGAAGAGCCGCCATAGTA/TATCACCAGGCAGTTGACAGTGTAGCAAGCTGTAATAGATGCGAGGGTCCAATAC/TCAACTGCCTGGTGATAAAACGACACTACGTGGGAATCTACTATGGCGGCTCTTC/TTCAGACTTAGGAATGTGCTTCCCACGTAGTGTCGTTTGTATTGGACCCTCGCAT/TTCCCTTCCTTCTCTCTTCCTCTCTCGCAGTTGATCCTTTGGATACCCTG; conditions: not stated for assay; assembled in 50 mM MgCl2; 3 nM Dox; complete quenching at DNA:Dox molar ratio 0.04; assembled in 20 mM Tris-HCl, pH 8.0

binding [1]: yes | binding [2]: yes | binding [3]: yes
SMILES: COc1cccc2c1C(=O)c1c(O)c3c(c(O)c1C2=O)C[C@@](O)(C(=O)CO)C[C@@H]3O[C@H]1C[C@H](N)[C@H](O)[C@H](C)O1
